Legend:
Assay type in all cases: functional
Amaranthus retroflexus [1] = assay: Herbicidal activity against Amaranthus retroflexus at 1.5 kg/hectare administered postemergence of first true leaf measured after 10 days; conditions: post-emergence, 240 h
Amaranthus retroflexus [2] = assay: Herbicidal activity against Amaranthus retroflexus at 1.5 kg/hectare administered preemergence of first true leaf measured after 10 days; conditions: pre-emergence, 240 h
[3] = test system: Botryosphaeria berengeriana; assay: Fungicidal activity against Physalospora pyricola assessed as inhibition of mycelium growth at 50 mg/L after 72 hrs
Bel-7402 [4] = assay: Antitumor activity against human Bel7402 cells at 100 uM/L after 72 hrs by MTT assay; conditions: Bel-7402, 72 h
Digitaria sanguinalis [5] = assay: Herbicidal activity against Digitaria sanguinalis (L.) Scop. at 1.5 kg/hectare administered preemergence of first true leaf measured after 10 days; conditions: pre-emergence, 240 h
Brassica napus [6] = assay: Herbicidal activity against Brassica napus at 1.5 kg/hectare administered postemergence of first true leaf measured after 10 days; conditions: post-emergence, 240 h
Fusarium graminearum = assay: Fungicidal activity against Gibberella zeae assessed as inhibition of mycelium growth at 50 mg/L after 72 hrs
Cladosporium cucumerinum = assay: Fungicidal activity against Cladosporium cucumerinum assessed as inhibition of mycelium growth at 50 mg/L after 72 hrs
Medicago sativa [7] = assay: Herbicidal activity against Medicago sativa at 1.5 kg/hectare administered preemergence of first true leaf measured after 10 days; conditions: pre-emergence, 240 h
HL-60 [8] = assay: Antitumor activity against human HL60 cells at 1 uM/L after 72 hrs by MTT assay; conditions: HL-60, 72 h
Cucumis sativus = assay: Growth regulatory activity in cucumber assessed as root growth at 10 mg/L incubated in dark for 5 days
HL-60 [9] = assay: Antitumor activity against human HL60 cells at 100 uM/L after 72 hrs by MTT assay; conditions: HL-60, 72 h
Bel-7402 [10] = assay: Antitumor activity against human Bel7402 cells at 1000 uM/L after 72 hrs by MTT assay; conditions: Bel-7402, 72 h
Mycosphaerella arachidis = assay: Fungicidal activity against Cercospora arachidicola assessed as inhibition of mycelium growth at 50 mg/L after 72 hrs
Medicago sativa [11] = assay: Herbicidal activity against Medicago sativa at 1.5 kg/hectare administered postemergence of first true leaf measured after 10 days; conditions: post-emergence, 240 h
Brassica napus [12] = assay: Herbicidal activity against Brassica napus L. at 1.5 kg/hectare administered preemergence of first true leaf measured after 10 days; conditions: pre-emergence, 240 h
Digitaria sanguinalis [13] = assay: Herbicidal activity against Digitaria sanguinalis at 1.5 kg/hectare administered postemergence of first true leaf measured after 10 days; conditions: post-emergence, 240 h
Alternaria solani = assay: Fungicidal activity against Alternaria solani assessed as inhibition of mycelium growth at 50 mg/L after 72 hrs
HL-60 [14] = assay: Antitumor activity against human HL60 cells at 10 uM/L after 72 hrs by MTT assay; conditions: HL-60, 72 h
Bel-7402 [15] = assay: Antitumor activity against human Bel7402 cells at 1 uM/L after 72 hrs by MTT assay; conditions: Bel-7402, 72 h
HL-60 [16] = assay: Antitumor activity against human HL60 cells at 1000 uM/L after 72 hrs by MTT assay; conditions: HL-60, 72 h
Bel-7402 [17] = assay: Antitumor activity against human Bel7402 cells at 10 uM/L after 72 hrs by MTT assay; conditions: Bel-7402, 72 h

Structure (SMILES) | inhibition at 1500 g/ha (Amaranthus retroflexus [1]) | inhibition at 1500 g/ha (Amaranthus retroflexus [2]) | inhibition at 50 µg/mL [3] | inhibition at 100 µM (Bel-7402 [4]) | inhibition at 1500 g/ha (Digitaria sanguinalis [5]) | inhibition at 1500 g/ha (Brassica napus [6]) | inhibition at 50 µg/mL (Fusarium graminearum) | inhibition at 50 µg/mL (Cladosporium cucumerinum) | inhibition at 1500 g/ha (Medicago sativa [7]) | inhibition at 1 µM (HL-60 [8]) | Activity (Cucumis sativus) | inhibition at 100 µM (HL-60 [9]) | inhibition at 1000 µM (Bel-7402 [10]) | inhibition at 50 µg/mL (Mycosphaerella arachidis) | inhibition at 1500 g/ha (Medicago sativa [11]) | inhibition at 1500 g/ha (Brassica napus [12]) | inhibition at 1500 g/ha (Digitaria sanguinalis [13]) | inhibition at 50 µg/mL (Alternaria solani) | inhibition at 10 µM (HL-60 [14]) | inhibition at 1 µM (Bel-7402 [15]) | also measured
CCOCCOC(=O)c1c(C(C)C)nn(-c2ccc(Cl)cc2Cl)c1N | 0% | 0% | 9.3% | 4.2% | 0% | 0% | 26.7% | 30.9% | 0% | 4.4% | -2.4% | 11.8% | 45.6% | 44.1% | 16.6% | 0% | 0% | 28% | 4.4% | 5.5% | inhibition at 1000 µM (HL-60 [16]): 56.8%; inhibition at 10 µM (Bel-7402 [17]): 0%
CCOCCOC(=O)/C(C#N)=C(\NNc1c(Cl)cc(Cl)cc1Cl)C(C)C | 13.3% | 0% | 6.7% | 9% | 0% | 0% | 4.8% | 8.3% | 0% | 0% | -2.2% | 20.8% | 84.3% | 18.2% | 21% | 0% | 17.9% | 10% | 0% | 5.2% | inhibition at 1000 µM (HL-60 [16]): 80.3%; inhibition at 10 µM (Bel-7402 [17]): 12.7%
CCOCCOC(=O)c1c(SC)nn(-c2ccccc2)c1N | 32% | 10% | 0% | 0% | 0% | 53.6% | 42.2% | 12.7% | 0% | 4.3% | 50.4% | 0.6% | 49% | 41.2% | 38.3% | 0% | 0% | 8% | 6.8% | 0% | inhibition at 1000 µM (HL-60 [16]): 10.6%; inhibition at 10 µM (Bel-7402 [17]): 0%
CCOCCOC(=O)/C(C#N)=C(/CC)NNc1ccc(Cl)cc1Cl | 18% | 0% | 76% | 0% | 0% | 0% | 28.6% | 38.9% | 0% | 0% | -5.2% | 0% | 0% | 51.5% | 0% | 0% | 0% | 40% | 0% | 0% | inhibition at 1000 µM (HL-60 [16]): 57.2%; inhibition at 10 µM (Bel-7402 [17]): 0%
CCOCCOC(=O)c1c(SC)nn(-c2ccc([N+](=O)[O-])cc2)c1N | 0% | 0% | 13.3% | 4.2% | 0% | 0% | 51.1% | 12.7% | 0% | 2.4% | 54.4% | 22.3% | 48.4% | 11.8% | 38.3% | 0% | 0% | 8% | 0% | 5.5% | inhibition at 1000 µM (HL-60 [16]): 28.5%; inhibition at 10 µM (Bel-7402 [17]): 0%
CCOCCOC(=O)c1c(C(C)C)nn(-c2ccc(C)cc2)c1N | 0% | 0% | 13.3% |  | 0% | 40.7% | 51.1% | 40% | 0% |  | 21.9% |  |  | 20.6% | 20% | 15% | 0% | 12% |  |  | 
CCOCCOC(=O)c1c(SC)nn(-c2ccc(Cl)cc2Cl)c1N | 0% | 0% | 46.7% | 0% | 0% | 0% | 42.2% | 32.7% | 0% | 4.3% | 17.8% | 16.9% | 46.7% | 47.1% | 0% | 30% | 0% | 16% | 8.4% | 0% | inhibition at 1000 µM (HL-60 [16]): 56.1%; inhibition at 10 µM (Bel-7402 [17]): 0%
CCOCCOC(=O)c1c(CC)nn(-c2ccc([N+](=O)[O-])cc2)c1N | 0% | 0% | 40% | 0% | 0% | 15% | 11.1% | 36.4% | 0% | 0.8% | 5.6% | 13.1% | 45.2% | 39.2% | 0% | 0% | 0% | 8% | 1.3% | 0% | inhibition at 1000 µM (HL-60 [16]): 41.5%; inhibition at 10 µM (Bel-7402 [17]): 0%
CCOCCOC(=O)/C(C#N)=C(/CC)NNc1c(Cl)cc(Cl)cc1Cl | 13.3% | 8.8% | 46.7% | 3.6% | 0% | 0% | 19.2% | 22.2% | 0% | 2.5% | -16.5% | 36.6% | 95.9% | 15.5% | 5.6% | 0% | 1.8% | 25% | 23.1% | 0% | inhibition at 1000 µM (HL-60 [16]): 84.3%; inhibition at 10 µM (Bel-7402 [17]): 3.9%
CCOCCOC(=O)c1c(SC)nn(-c2ccc(C)cc2C)c1N | 0% | 0% | 9.3% | 0% | 0% | 24.1% | 46.7% | 10.9% | 0% | 9.4% | 42.2% | 49.9% | 32.9% | 35.3% | 0% | 0% | 0% | 8% | 21% | 0% | inhibition at 1000 µM (HL-60 [16]): 43.5%; inhibition at 10 µM (Bel-7402 [17]): 0%
CCOCCOC(=O)c1c(C(C)C)nn(-c2ccc([N+](=O)[O-])cc2)c1N | 0% | 0% | 46.7% | 10.7% | 0% | 0% | 46.7% | 40% | 0% | 0% | 21.9% | 27.8% | 48.6% | 44.1% | 0% | 0% | 0% | 16% | 9% | 0% | inhibition at 1000 µM (HL-60 [16]): 10%; inhibition at 10 µM (Bel-7402 [17]): 6.2%
